Here are results for six compounds from publication PMC6542793, “The identification of small molecule inhibitors of the plant inositol phosphorylceramide synthase which demonstrate herbicidal activity” (Scientific Reports, 2019).

“And” between values parts separate entries of the source, which are not always exact repeats. Equal values may be shown once. “Also recorded” adds a separate entry of the source. Starred links: 1 amine or outer side, 2 acyl side, 3 side chain; linkers in the order of their positions; H or OH if unused. Non-standard residues stand in square brackets, D forms with d. Residues, ends and D or L forms follow the SMILES beside them. X1 = CC[C@@H](C)[C@@H](O[*:1])C(=O)[*:2]; NMeVal(β-OH) = CN[C@H](C(=O)O)C(C)(C)O; NMeF = CN[C@@H](Cc1ccccc1)C(=O)O; aIle = CC[C@@H](C)[C@H](N)C(=O)O; NMeV = CN[C@H](C(=O)O)C(C)C

In one test the test system is Arabidopsis seedlings. Nature of the test: In vivo screening, Arabidopsis seedlings grown on agar. More on the design: species or system A. thaliana (Col0). The procedure: In vivo testing of the phenylamidine Compound 1 was undertaken against Arabidopsis seedlings grown on agar.
A. thaliana (Col0) seedlings were grown for 10 days on 0.8% Murashige and Skoog (MS) agar and then transferred to 1.2% MS agar containing compounds at the desired concentrations or DMSO as a control. Plants were grown at 20 °C under 16 hour day/8 hour night photoperiod.

Test [1] concerns the target T1, AtIPCS2 (Arabidopsis thaliana, UniProt Q9SH93).
T1 construct: The complete open reading frames of AtIPCS2 and AUR1p were amplified from cDNA or GenEZ ORF Clones; made in house; microsomal membranes
T1 sequence (Q9SH93 1-305): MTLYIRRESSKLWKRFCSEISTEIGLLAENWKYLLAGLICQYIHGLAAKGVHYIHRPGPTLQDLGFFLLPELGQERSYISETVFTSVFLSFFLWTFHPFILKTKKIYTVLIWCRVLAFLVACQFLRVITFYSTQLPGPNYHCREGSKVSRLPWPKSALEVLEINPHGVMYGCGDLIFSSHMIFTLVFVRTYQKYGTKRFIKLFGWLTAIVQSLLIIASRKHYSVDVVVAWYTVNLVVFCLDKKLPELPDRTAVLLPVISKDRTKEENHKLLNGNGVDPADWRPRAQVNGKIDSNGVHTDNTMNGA
Nature of the test: Secondary screening, 96-well plate microsomal in vitro IPCS enzyme assay (AtIPCS2). The format is biochemical. Conditions: AtIPCS2 IC50 (95% CI), microsomal membranes, dose response 100 µM to 46 nM, triplicate. The procedure: (§1) In the secondary screening stage the previously described microsomal-based in vitro IPCS assay was adapted and utilised. Initially, all 106 selective hits from the primary screen were tested, in duplicate, at 10 µM.
(§2) Microsomal material was prepared from MSY23-3C pESC-LEU_AtIPCS2 and MSY23-3C pESC-LEU_AUR1 as previously described. IPCS turnover was assayed using HPTLC (Merck) and imaged using a Fuji FLA−3000 reader and AIDA Image Analyser® software (version 3.52) as previously described. Subsequently, a 96-well plate assay was formatted based on the protocol described by Mina et al.[17]. Following optimisation of substrate concentration and incubation time, each compound at the desired concentration (100 µM to 46 nM; in triplicate), was incubated in 96-well plates (Corning® Costar®) in phosphate buffer (71.4 mM, pH 7.0) with soybean PI (100 µM, final concentration, Avanti), NBD-C6-phytoceramide (15 µM; ThermoFisher) and microsomal membranes (0.3–0.4 Units[17]). Following incubation for 60 minutes (or 40 minutes for MSY23-3C pESC-LEU_AUR1 membranes) at 30 °C the reaction was quenched by the addition of 200 µl methanol per well, the reaction product separated using exchange chromatography in 96-well filter plates (Millipore)[17] and the fluorescence measured at Ex460/Em540 using a fluorescence Microplate Reader (Biotek Synergy H4 with Gen5™). […]

The target of test [2] is T2, Aur1p (Saccharomyces cerevisiae, UniProt P36107).
T2 construct: The complete open reading frames of AtIPCS2 and AUR1p were amplified from cDNA or GenEZ ORF Clones; made in house; microsomal membranes
T2 sequence (P36107 1-401): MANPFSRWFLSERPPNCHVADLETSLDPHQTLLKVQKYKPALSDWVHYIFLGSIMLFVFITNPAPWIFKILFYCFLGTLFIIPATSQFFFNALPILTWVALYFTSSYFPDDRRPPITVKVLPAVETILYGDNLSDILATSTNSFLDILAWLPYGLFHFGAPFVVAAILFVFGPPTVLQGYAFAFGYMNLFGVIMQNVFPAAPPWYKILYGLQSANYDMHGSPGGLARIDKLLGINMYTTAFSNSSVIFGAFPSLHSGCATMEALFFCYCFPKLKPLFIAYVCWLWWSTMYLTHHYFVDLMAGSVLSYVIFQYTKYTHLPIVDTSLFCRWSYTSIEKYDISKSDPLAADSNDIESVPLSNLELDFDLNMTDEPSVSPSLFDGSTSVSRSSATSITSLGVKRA
T2 sequence (Q06346 1-221 partner): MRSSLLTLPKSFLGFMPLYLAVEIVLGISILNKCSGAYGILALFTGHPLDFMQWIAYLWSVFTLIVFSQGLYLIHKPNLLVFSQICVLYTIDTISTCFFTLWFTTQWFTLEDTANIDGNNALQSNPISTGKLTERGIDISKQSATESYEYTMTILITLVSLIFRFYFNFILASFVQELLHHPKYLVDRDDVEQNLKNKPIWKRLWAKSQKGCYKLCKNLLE
Nature of the test: Secondary screening, 96-well plate microsomal in vitro IPCS enzyme assay (Aur1p control). The format is biochemical. As to the method: as §1, §2

Test [3] has as its target T2, Aur1p. Briefly: HPTLC in vitro IPCS assay of microsomal extracts, NBD-IPC production (Aur1p). The format is biochemical. Particulars: presence vs absence of AbA.
Protocol: Microsomal material was prepared from MSY23-3C pESC-LEU_AtIPCS2 and MSY23-3C pESC-LEU_AUR1 as previously described[33]. IPCS turnover was assayed using HPTLC (Merck) and imaged using a Fuji FLA−3000 reader and AIDA Image Analyser® software (version 3.52) as previously described[17].
Test [4] deals with T1, AtIPCS2. Briefly: HPTLC in vitro IPCS assay of microsomal extracts, NBD-IPC production (AtIPCS2). The format is biochemical. Conditions: presence vs absence of AbA. The procedure: In the quadruple pdr1∆ pdr3∆ pdr16∆ pdr17∆ strain, AUR1 was deleted and replaced by a HIS3 selectable marker, with growth supported by expression of the essential AUR1 gene from the plasmid pRS316-AUR1 under uracil selection. […] (Fig. 2).
Figure 2 HPTLC separation of in vitro assayed Aur1p and AtIPCS2 showing the production of NBD-IPC in the presence (+) and absence (−) of AbA. […] NBD-Cer is the substrate, NBD-C6-phytoceramide.
as §2, with “Following optimisation of substrate concentration and incubation time, each compound at the desired concentration (100 µM to 46 nM; in triplicate), was incubated in 96-well plates (Corning® Costar®) in phosphate buffer (71.4 mM, pH 7.0) with soybean PI (100 µM, final concentration, Avanti), NBD-C6-phytoceramide (15 µM; ThermoFisher) and microsomal membranes (0.3–0.4 Units[17]).” left out

The next test concerns fungal IPCS. More on the design: method as in PMID 8593016, PMID 9405490, PMID 9614099, PMID 17420565, PMID 19644519. Particulars: inhibitors of the fungal IPCS; cited from earlier work.

One may read the IC50 as the point on the concentration scale where inhibition reaches its midpoint. For the compound `Cc1cc(Oc2ccc(C#N)c(CC(C)(C)C)c2)c(C)cc1N=CN1CCCCC1` [Compound 1], the “phenotype of treated seedlings” value with Arabidopsis seedlings (7 day old seedlings on agar containing 10 and 40 µM, compared to DMSO control) was “clear purple patches associated with anthocyanin biosynthesis in response to stress[47], and an absence of lateral root development”. The “effects on wild type Col-0 Arabidopsis seedlings, in words” value in the test with Arabidopsis seedlings (in vivo screening, dose response) was “dose dependent effects with decreased lateral root development, and distinctive purple leaf patches; also recorded: induce the plant stress response”. In the test on Arabidopsis seedlings (tested at 3.7, 11, 33 and 100 µM, compared to DMSO control), the “concentration at which treatment restricted growth and led to purple leaf patches” value is recorded as no less than 11 µM. Besides, the concentration for half-maximal inhibition (IC50) at AtIPCS2 [1] is 4.02 µM and < 5 µM; at Aur1p [2], greater than 50 µM.

With `CC[C@@H](C)[C@@H]1NC(=O)[C@@H]2CCCN2C(=O)[C@H](Cc2ccccc2)N(C)C(=O)[C@H](Cc2ccccc2)NC(=O)[C@H](C(C)C)N(C)C(=O)[C@@H]([C@H](C)CC)OC(=O)[C@H](C(C)(C)O)N(C)C(=O)[C@H](CC(C)C)NC(=O)[C@H](C(C)C)N(C)C1=O` [aureobasidin A] (cyclo(F[NMeF]P[aIle][NMeV]L[NMeVal(β-OH)][X1][NMeV])), the “sensitivity of Aur1p activity (NBD-IPC production) to the compound” value on Aur1p [3] is given as “Only the fungal enzyme Aur1p is sensitive”. Further, the “sensitivity of AtIPCS2 activity (NBD-IPC production) to the compound” value at AtIPCS2 [4] is on record as “insensitive”. The “IC50 against Saccharomyces cerevisiae” value in the test on fungal IPCS is listed as “low nano-molar”.

`CCCCCCCCCC[C@H](C)[C@@H](O)[C@@H](C)/C=C(C)/C=C(\C)C(=O)[C@H](C)/C=C(\C)C(=O)O[C@H](CO)[C@@H](O)[C@H](O)C(=O)O` [khafrefungin]: the “IC50 against Saccharomyces cerevisiae” value with fungal IPCS was “low nano-molar”.

Regarding haplofungin, in the test with fungal IPCS, the “IC50 against Saccharomyces cerevisiae” value is reported as “low nano-molar”.

Take pleofungin: in the test on fungal IPCS, the “IC50 against Saccharomyces cerevisiae” value was “low nano-molar”.

On to rustimicin, for which, in the test with fungal IPCS, the “IC50 against Saccharomyces cerevisiae” value is “low nano-molar”.
